Reference: patent US20210260051A1, “COMBINATION OF EZH2 INHIBITOR AND CHECKPOINT THERAPY FOR THE TREATMENT OF CANCER” (Board of Regents, The University of Texas System, priority 2018, published 2021)

Legend:
[1] = patients, in combination with other immune checkpoint therapy such as Nivolumab; cited from earlier work
EZH2 [2] = test: flow cytometry of EZH2 expression in sorted peripheral T cell subsets before and after ipilimumab; assay type: in vivo, human; settings: peripheral blood, post-ipilimumab vs baseline; FIG. 7
Source text: FIG. 7: Flow cytometry analysis of EZH2 expression on CD4^+CD45RO^−CD45RA+CCR7^− (CD4 T effector, Teff), CD4^+CD25^+FoxP3^+ (T regulatory, T-reg) and CD8 T cells derived from peripheral blood mononuclear cells of patients with metastatic melanoma at baseline and after three doses of ipilimumab. Matched pair analysis of Ezh2 expression before and after ipilimumab therapy. Student t-test was used for significance (**p<0.01, *p<0.05).
Next, EZH2 expression was confirmed in peripheral CD4 T cells isolated from patients with metastatic prostate cancer at baseline and after three doses of ipilimumab (Subudhi et al., 2016). […] Next, EZH2 expression was evaluated on human CD4 effector T cells (CD4^+CD45RO^−CD45RA^+CCR7^−), regulatory T cells (CD4^+CD25^+FoxP3^+) and CD8 T cells sorted from peripheral blood of at baseline and post-ipilimumab therapy.
Tissue processing and flow cytometry. […] Staining with intracellular anti-Foxp3 (eBioscience, FJK-16 s), […] (eBioscience, PC61.5), antiKi-67 (eBioscience, SolA15), antiIFN-γ (BioLegend, XMG1.2), anti-TNF-α (BioLegend, MP6-XT22), and anti-EZH2 (Cell Signaling Technology, D2C9) were analyzed by flow cytometry according to the manufacturers’ instructions. Flow cytometry data were acquired on BD LSR II (BD Biosciences) and analyzed using FlowJo software (Tree Star, Ashland, Oreg.).

EZH2 [3] = test: EZH2 expression in peripheral CD4 T cells of patients with metastatic melanoma (RNA sequencing); assay type: in vivo, human; settings: after three doses vs baseline, FIG. 2B
Source text: (§1) FIGS. 2A-2C: Ipilimumab increases EZH2 expression in T cells. (FIG. 2A) Unsupervised hierarchical cluster analysis of RNA sequencing data from the peripheral CD4 T cells of patients with metastatic melanoma before and after 3 doses of ipilimumab therapy (week 7). (FIG. 2B) Matched pair analysis of EZH2 expression before and after ipilimumab therapy. (FIG. 2C) Ezh2 expression in peripheral CD4 T cells from patients with metastatic prostate cancer at baseline and after 3 doses of ipilimumab therapy. (2 tailed student t test was used to determine significance; **p<0.01).
T cell activation by CD28 signaling induces EZH2 expression (DuPage et al., 2015). It was postulated that exaggerated CD28 signaling due to anti-CTLA-4 therapy would increase EZH2 expression in T cells. To test this hypothesis, peripheral CD4 T cells were isolated from patients with metastatic melanoma who received ipilimumab as the first line of therapy for metastatic disease, at baseline and after three doses of ipilimumab therapy.
Patient samples. […]
RNA sequencing. […] For bioinformatics analysis, the raw reads were aligned to the mm10 reference genome using TopHat2. HTSeq count was used to count the raw reads that were uniquely mapped to each gene. DESeq2 was then applied to normalize the raw read counts and identify the differentially expressed genes between the groups. […]

EZH2 [4] = test: EZH2 expression in peripheral CD4 T cells of patients with metastatic prostate cancer; assay type: in vivo, human; settings: after three doses vs baseline, FIG. 2C
Source text: as §1
Next, EZH2 expression was confirmed in peripheral CD4 T cells isolated from patients with metastatic prostate cancer at baseline and after three doses of ipilimumab (Subudhi et al., 2016). Like in patients with metastatic melanoma, increased EZH2 expression was found in CD4 T cells following ipilimumab therapy (FIG. 2C) that inversely correlated with prostate-specific antigen progression (FIG. 6). Next, EZH2 expression was evaluated on human CD4 effector T cells (CD4^+CD45RO^−CD45RA^+CCR7^−), regulatory T cells (CD4^+CD25^+FoxP3^+) and CD8 T cells sorted from peripheral blood of at baseline and post-ipilimumab therapy.
Patient samples. Metastatic melanoma samples were obtained from patients who received ipilimumab as the standard of care. […]

For “ipilimumab: a fully human monoclonal immunoglobulin G1 antibody that blocks cytotoxic T lymphocyte associated protein 4”, the side effect profile [1] is listed as “manageable side effect profile”, the “EZH2 expression in CD4 effector T cells, regulatory T cells and CD8 T cells” value (EZH2 [2]) is listed as “increased in all three T cell subtypes” and the “EZH2 expression in peripheral CD4 T cells” value (EZH2 [3]) is listed as “increase”. The “EZH2 expression in CD4 T cells” value (EZH2 [4]) was “increased”.
